# Laboratory results from patent publication US20040146520A1, “Materials and methods relating to immune suppression” (priority 2001, published 2004).
# Where a SMILES comes first, the peptide text is derived from it. The star is where a group is joined. Cbz = O=C(OCc1ccccc1)*; CH2F = FC*
# How the values were obtained:
# [1] = molecular target: CD8-associated p56lck (Homo sapiens, UniProt P06239); settings: cited from earlier work
# [2] = tested on: Flu-specific (MP58-66) CTL; test: CTL apoptosis induced by peptide/MHC multimeric beads; format: cell-based, human; settings: IL-2 20 U/ml, anti-CD28 1 μg/ml, z-VAD 10 μM; 12 hrs
# [3] = tested on: A2+ B cell targets; test: Gag-specific CTL assay, apoptosis of peptide-pulsed targets (Annexin-V); settings: peptide-pulsed BCL, 12-hour incubation, FIG. 1b
# Chain of CD8-associated p56lck (P06239 whole entry): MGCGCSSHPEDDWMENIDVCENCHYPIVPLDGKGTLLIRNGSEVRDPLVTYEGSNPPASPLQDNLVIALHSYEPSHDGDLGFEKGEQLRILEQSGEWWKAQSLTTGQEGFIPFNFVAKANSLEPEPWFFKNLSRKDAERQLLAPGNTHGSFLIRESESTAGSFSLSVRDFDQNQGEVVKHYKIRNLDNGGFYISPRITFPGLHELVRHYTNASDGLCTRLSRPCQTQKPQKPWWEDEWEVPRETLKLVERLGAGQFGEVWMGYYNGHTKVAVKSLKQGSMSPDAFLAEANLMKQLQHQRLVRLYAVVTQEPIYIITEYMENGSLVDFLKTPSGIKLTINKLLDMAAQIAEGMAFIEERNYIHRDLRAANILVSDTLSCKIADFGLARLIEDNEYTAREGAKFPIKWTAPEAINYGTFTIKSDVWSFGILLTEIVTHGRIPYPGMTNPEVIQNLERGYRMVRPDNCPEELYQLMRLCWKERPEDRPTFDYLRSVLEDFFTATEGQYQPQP
compound,measurement,setting,value
CO[C@H]1[C@@H](OC)C[C@H](C)[C@@H](OC)C2=CC(=O)C=C(NC(=O)/C(C)=C/C=C\[C@H](OC)[C@@H](OC(N)=O)/C(C)=C/[C@@H]1C)C2=O [herbimycin A],effect on FasL-mediated cytotoxicity,[1],little effect
CC(NC(=O)C(NC(=O)OCc1ccccc1)C(C)C)C(=O)NC(CC(=O)O)C(=O)CF (stereo not drawn) [z-VAD] (Cbz-Val-Ala-Asp-CH2F; configuration not given here),effect of added reagent on multimer-induced CTL death,[2],blocked
SLFNTVATL [Mutant 3F],"target cell death, gag variant peptides",[3],sensitising
